Values quoted from earlier work in patent US20060110374A1, “Method to accelerate stem cell recruitment and homing” (priority 2004, published 2006).

What was measured:
[1] = system: EPCs
[2] = system: EPCs; remark: listed apart in the source
[3] = patients, intra-coronary injection followed by 2 weeks of subcutaneous administration

| Substance | time to rise of EPC levels in the bloodstream ([1]; after administration) [h] | mobilization of EPCs into the peripheral circulation ([1]; animal models, exogenous administration) | numbers of EPCs ([2]; mice and rabbits) | neovascularization with bone marrow-derived cells ([2]; mice, corneal neovascularization model) | coronary collateral flow [3] |
| --- | --- | --- | --- | --- | --- |
| VEGF | ≤ 24 | promotes rapid mobilization |  |  |  |
| GM-CSF: granulocyte macrophage colony stimulating factor |  |  | Increased numbers | enhanced neovascularization | significant increase |
